{"source": "patent US10259843B2", "about": "“Cyclic tetrapeptide stereoisomers” (University of Kansas, priority 2014, dated 2019)", "key": {"[1]": {"molecular_target": "kappa opioid receptor (KOR) (Homo sapiens, UniProt P41145)", "sequence (P41145 whole entry)": "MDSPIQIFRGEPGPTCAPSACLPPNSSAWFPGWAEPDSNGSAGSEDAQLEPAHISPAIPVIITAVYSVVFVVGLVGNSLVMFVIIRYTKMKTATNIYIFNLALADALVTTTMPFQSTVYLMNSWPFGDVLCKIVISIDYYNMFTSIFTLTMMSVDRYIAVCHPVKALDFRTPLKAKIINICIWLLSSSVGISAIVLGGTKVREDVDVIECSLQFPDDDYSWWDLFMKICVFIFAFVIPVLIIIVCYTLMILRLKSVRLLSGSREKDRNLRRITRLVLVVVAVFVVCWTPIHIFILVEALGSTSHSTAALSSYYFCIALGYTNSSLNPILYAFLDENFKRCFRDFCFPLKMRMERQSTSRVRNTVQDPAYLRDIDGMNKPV", "assay": "radioligand binding assay, kappa opioid receptor affinity", "details": "n in parentheses; read-out: Ki (nM ± SEM) KOR", "experimental": "(§1) The peptides of Table 1 shown below in Tables 3 and 4 were evaluated in radioligand binding assays for mu, kappa and delta opioid receptor affinities in vitro, and in the mouse 55° C. warm water tail withdrawal assay in vivo for antinociception and opioid antagonist activity."}, "mu opioid receptor (MOR)": {"molecular_target": "mu opioid receptor (MOR) (Homo sapiens, UniProt P35372)", "sequence (P35372 whole entry)": "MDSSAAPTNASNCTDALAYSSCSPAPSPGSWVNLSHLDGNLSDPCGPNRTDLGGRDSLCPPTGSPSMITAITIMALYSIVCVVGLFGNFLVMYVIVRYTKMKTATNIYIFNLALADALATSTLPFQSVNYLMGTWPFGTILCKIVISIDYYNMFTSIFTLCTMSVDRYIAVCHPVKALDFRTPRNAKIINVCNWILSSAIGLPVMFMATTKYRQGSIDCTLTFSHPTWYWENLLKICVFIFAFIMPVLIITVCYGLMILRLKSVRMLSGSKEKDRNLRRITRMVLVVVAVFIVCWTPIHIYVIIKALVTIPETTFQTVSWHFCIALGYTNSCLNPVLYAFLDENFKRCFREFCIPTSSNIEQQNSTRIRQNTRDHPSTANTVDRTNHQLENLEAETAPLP", "assay": "radioligand binding assay, mu opioid receptor affinity", "details": "n in parentheses; read-out: Ki (nM ± SEM) MOR", "experimental": "as §1"}, "[2]": {"molecular_target": "delta opioid receptor (DOR) (Homo sapiens, UniProt P41143)", "sequence (P41143 whole entry)": "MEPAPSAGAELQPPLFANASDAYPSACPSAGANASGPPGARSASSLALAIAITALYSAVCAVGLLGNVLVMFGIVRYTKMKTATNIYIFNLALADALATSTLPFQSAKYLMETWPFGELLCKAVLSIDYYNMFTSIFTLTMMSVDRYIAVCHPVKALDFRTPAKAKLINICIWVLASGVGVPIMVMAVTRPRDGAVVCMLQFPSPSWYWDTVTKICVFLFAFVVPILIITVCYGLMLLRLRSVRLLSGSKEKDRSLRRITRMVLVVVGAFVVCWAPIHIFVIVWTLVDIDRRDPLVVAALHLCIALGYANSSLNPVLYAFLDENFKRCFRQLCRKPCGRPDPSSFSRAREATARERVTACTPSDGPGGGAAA", "assay": "radioligand binding assay, delta opioid receptor affinity", "details": "n in parentheses; read-out: Ki (nM ± SEM) DOR", "experimental": "as §1"}, "[3]": {"assay": "mouse 55° C. warm water tail withdrawal assay, antinociception", "type": "in vivo", "experimental": "as §1"}, "[4]": {"tested_on": "opioid receptors (KOR, MOR, DOR)", "assay": "mouse 55° C. warm water tail withdrawal assay, opioid antagonist activity", "type": "in vivo", "details": "30 nmol", "experimental": "as §1"}, "formalin assay": {"assay": "formalin assay", "type": "in vivo, rodent", "details": "10 mg/kg oral, vs saline i.p.", "experimental": "It entails the injection of a dilute solution of formalin into the surface of the rodent's hindpaw, followed by the scoring of stereotypical behaviors such as flinching, licking, and biting of the affected hindpaw. The behaviors last for approximately 1 hour, with the early or acute stage (directly after injection) reflecting direct activation of nociceptors and the late or tonic phase (15 to 20 minutes after the injection) reflecting inflammation."}, "[5]": {"assay": "acetic acid stretching assay", "type": "in vivo", "details": "10 mg/kg and 30 mg/kg", "experimental": "The acetic acid stretching assay is a model for visceral pain and is the most popular chemical assay of nociception. In the assay, subjects are given a subcutaneous (s.c.) injection of drug or vehicle 60 min before an intraperitoneal (i.p.) injection of 0.6% acetic acid. After administration of the acetic acid, the subjects are placed in clear cages (11×7×5 in) and scored for abdominal stretches during a 20 min observation period. Stretching was defined as body contortions, belly pressing, and extension of the hind limbs from which visceral nociception was inferred. […] And while the effect of 3607 was not as pronounced as with morphine, the observed reductions in stretching were significant, indication that 3607 has a significant pain reduction effect."}, "[6]": {"assay": "nerve constriction assay for neuropathic pain", "type": "in vivo, rodent", "details": "3 mg/kg, 10 mg/kg, and 30 mg/kg; compared to 50 mg/kg gabapentin", "experimental": "In the nerve constriction assay, a nerve of a subject rodent is chronically constricted or cuffed and then the animal is assessed for response to pain stimuli such a paw withdrawal. […] Gabapentin is an accepted treatment for neuropathic pain."}, "acute tolerance model": {"assay": "acute tolerance model", "details": "in vivo"}, "[7]": {"assay": "rotorod test for sedation and motor coordination", "type": "in vivo", "design": "key: ✓ indicates tested (if no other comment then no significant effect)", "details": "10 mg/kg, p.o."}, "locomotion (CLAMS)": {"assay": "locomotion (CLAMS)", "type": "in vivo", "design": "key: ✓ indicates tested (if no other comment then no significant effect)", "details": "10 mg/kg, p.o."}, "respiratory depression": {"assay": "respiratory depression", "type": "in vivo", "design": "key: ✓ indicates tested (if no other comment then no significant effect)"}, "[8]": {"assay": "other pain models (formalin, acetic acid stretching, nerve constriction; FIGS. 1-3B)", "details": "in vivo", "from_the_text": "These models are based on the formalin assay, the acetic acid stretching assay, and the nerve constriction assay. The formalin and acetic acid stretching assays are indicative of activity against inflammatory pain (i.e., nociceptive pain) and the nerve constriction assay is indicative of activity against neuropathic pain."}, "[9]": {"assay": "conditioned place response assay", "details": "oral administration of the peptides"}}, "note": "Entries after “also recorded” stand apart in the source; their conditions may differ. Non-standard residues stand in square brackets, D forms with d. Residues, ends and D or L forms follow the SMILES beside them.", "data": [{"smiles": "O=C1N[C@H](Cc2ccccc2)C(=O)N2CCC[C@@H]2C(=O)N[C@H](Cc2ccccc2)C(=O)N[C@H]1Cc1c[nH]c2ccccc12", "note": "[JVA 3607, cyclo-[D-Phe-D-Pro-D-Phe-Trp]] (cyclo([dF][dP][dF]W))", "values": [{"measurement": "Ki", "setting": "[1]", "result": "2560 ± 480", "unit": "nM"}, {"measurement": "Ki", "setting": "mu opioid receptor (MOR)", "result": "7780 ± 410", "unit": "nM"}, {"measurement": "Ki", "setting": "[2]", "result": "> 10000", "unit": "nM"}, {"measurement": "ED50 (95% CI) i.c.v.", "setting": "[3]; antinociception, i.c.v.", "result": 1.00, "unit": "nmol"}, {"measurement": "ED50 (95% CI) p.o.", "setting": "[3]; antinociception, p.o.", "result": 4.12, "unit": "mg/kg"}, {"measurement": "Receptors involved", "setting": "[3]; opioid receptors contributing to antinociception", "result": "mu opioid receptors (MOR) are not involved; also recorded: KOR, DOR"}, {"measurement": "Antagonism (dose, nmol)", "setting": "[4]", "result": "None (30)"}, {"measurement": "time spent licking after formalin administration", "setting": "formalin assay", "result": "significant reduction"}, {"measurement": "antinociception (abdominal stretches)", "setting": "[5]", "result": "significant antinociception"}, {"measurement": "relief of neuropathic pain", "setting": "[6]", "result": "significant relief of neuropathic pain"}, {"measurement": "Acute Tolerance ED50 shift", "setting": "acute tolerance model", "result": 5.19, "unit": "fold"}, {"measurement": "Rotorod (10 mg/kg, p.o.)", "setting": "[7]", "result": "✓"}, {"measurement": "Locomotion (CLAMS, 10 mg/kg, p.o.)", "setting": "locomotion (CLAMS)", "result": "✓"}, {"measurement": "Respiratory depression 10 mg/kg p.o.", "setting": "respiratory depression", "result": "✓"}, {"measurement": "analgesic activity in other pain models", "setting": "[8]", "result": "significant analgesic properties; also recorded: show activity against pain"}, {"measurement": "conditioned place preference (drug seeking behavior) or conditioned place aversion", "setting": "[9]", "result": "no evidence of inducing drug seeking behavior; also recorded: do not show evidence of conditioned place preference (drug seeking behavior) or conditioned place aversion"}]}]}
